Measurements as given in ChEMBL document CHEMBL5537109, “Natural products as potential lead compounds to develop new antiviral drugs over the past decade” (Eur J Med Chem, 2023).
Numbered stars: 1 amine (or outer) side, 2 acyl side, 3 side chain; on linkers, the order of the positions; unused ones are H or OH. Bridge positions count the residues as written; N and C are the ends. Square brackets hold non-standard residues; d marks the D form. Peptide text beside a SMILES is read from it. X2 = CCCCCCCCC[C@@H](CCCC(=O)[*:1])O[*:2]; d(aThr) = C[C@@H](O)[C@@H](N)C(=O)O; aIle = CC[C@@H](C)[C@H](N)C(=O)O

Legend:
Human alphaherpesvirus 1 = assay: Antiviral activity against HSV-1 assessed as inhibition of viral growth; format: functional, organism-based
[1] = test system: Human immunodeficiency virus 1; assay: Antiviral activity against HIV-1 3B harboring reverse transcriptase infected in human C8166 cells assessed as protection against virus-induced cytopathic effect incubated for 5 days by MTT assay; format: functional, organism-based; details: Human immunodeficiency virus 1, 3B, C8166, 120 h
[2] = Cytotoxicity against human C8166 cells assessed as inhibition of cell growth by MTT assay; format: toxicity, cell-based
[3] = test system: Human immunodeficiency virus 1; assay: Antiviral activity against HIV-1 3B infected in human MT4 cells assessed as inhibition of viral replication incubated for 5 days by MTT assay; format: functional, organism-based; details: Human immunodeficiency virus 1, 3B, MT4, 120 h
SARS-CoV-2 = assay: Antiviral activity against SARS-CoV-2 NVDBB-2220 infected in African green monkey Vero cells assessed as reduction in virus-induced cytopathic effect incubated for 5 days by microscopic analysis; format: functional, organism-based; details: Severe acute respiratory syndrome coronavirus 2, NVDBB-2220, Vero, 120 h
Influenza A virus [4] = assay: Antiviral activity against influenza A virus H5N1 infected in dog MDCK cells assessed as viral growth inhibition; format: functional, organism-based
[5] = Inhibition of Influenza A virus A/California/04/2009 (H1N1) N-terminal his tagged domain of PA endonuclease expressed in Escherichia coli BL21 (DE3) cells
Influenza A virus [6] = assay: Antiviral activity against influenza A virus H1N1(A/PR/8/34) infected in MDCK cells assessed as inhibition of cytopathic effect incubated for 48 hrs by MTT assay; format: functional, organism-based
[7] = Cytotoxicity against MDCK cells assessed as inhibition of cell growth incubated for 48 hrs by MTT assay; format: toxicity, cell-based, Canis lupus familiaris; details: dog
Influenza A virus [8] = assay: Antiviral activity against influenza A virus A/Hong Kong/1/68 (HK1, H3N2) infected in dog MDCK cells assessed as cytopathic effect; format: functional, organism-based
[9] = Cytotoxicity against African green monkey Vero E6 cells assessed as reduction in cell growth incubated for 24 hrs by WST-8 assay; format: toxicity, cell-based, Vero C1008; details: chlorocebus sabaeus
[10] = test system: Human immunodeficiency virus 1; assay: Anti-HIV activity against HIV-1 IIIB infected in human C8166 cells assessed as inhibition of virus-induced cytopathic effect by MTT assay; format: functional, organism-based; details: Human immunodeficiency virus 1, IIIB
[11] = Cytotoxicity against human C8166 cells assessed as inhibition of cell growth incubated for 48 hrs by MTT assay; format: toxicity, cell-based
[12] = test system: Human immunodeficiency virus 1; assay: Antiviral activity against HIV-1 3B harboring reverse transcriptase infected in human MT4 cells assessed as protection against virus-induced cytopathic effect incubated for 5 days by MTT assay; format: functional, organism-based; details: Human immunodeficiency virus 1, 3B, MT4, 120 h
RAW264.7 = assay: Cytotoxicity against mouse RAW264.7 cells assessed as reduction in cell viability incubated for 24 hrs by CCK-8 method; format: functional
[13] = test system: Human immunodeficiency virus 1; assay: Antiviral activity against HIV-1 harboring reverse transcriptase infected in human MT4 cells assessed as reduction in virus-induced cytopathic effect; format: functional, organism-based; details: Human immunodeficiency virus 1, MT4
[14] = test system: Human immunodeficiency virus 1; assay: Antiviral activity against wild-type HIV-1 NL4-3 infected in human MT4 cells assessed as inhibition of viral growth by measuring reduction in p24 antigen level incubated for 3 to 7 days by ELISA analysis; format: functional, organism-based; details: Human immunodeficiency virus 1, NL4-3, MT4
[15] = molecular target: Human immunodeficiency virus type 1 reverse transcriptase (Human immunodeficiency virus 1, UniProt Q72547); assay: Inhibition of HIV1 reverse transcriptase

## CCCCCCCCC[C@H]1CCCC(=O)N[C@H]([C@@H](C)O)C(=O)N[C@H](C)C(=O)N2CCC[C@H]2C(=O)N[C@@H](CCC(N)=O)C(=O)N[C@H](Cc2ccc(O)cc2)C(=O)N[C@@H]([C@H](C)CC)C(=O)O1 ([d(aThr)][dA]PQ[dY][aIle]; linker N-C via X2)
Human alphaherpesvirus 1
  EC50: 14 µM

## COc1c2c(cc3oc(CO)cc(=O)c13)OC(C)(C)C=C2
[1]
  EC50: 9.72 µM
[2]
  CC50: > 200 µM

## C=CC(CO)[C@@H]1C[C@H]2c3[nH]c4ccccc4c3CCN2C(=O)[C@H]1CO (some centres not stated)
[3]
  EC50: 0.06 µM

## C=C1C(=O)O[C@@]23[C@H]1CC[C@@H](C)[C@@H]2CC[C@@]1(C)O[C@@H]31 [ARTEANNUIN B]
SARS-CoV-2
  EC50: 10.3 µM

## CCCCCC(O)/C=C/C=C\CCCCCC[C@@]1(O)C[C@H](C(=O)OC)[C@H](C(C)=O)O1 (some centres not stated)
[1]
  EC50: 0.08 µM
[2]
  CC50: > 200 µM

## O=C(OC[C@H]1O[C@@H](Oc2ccc(O)cc2C(=O)O)[C@H](OC(=O)c2cc(O)c(O)c(O)c2)[C@@H](O)[C@@H]1O)c1cc(O)c(O)c(O)c1
Influenza A virus [4]
  IC50: 21.1 µM
[5]
  IC50: 27.6 µM
Influenza A virus [6]
  EC50: 32.1 µM
[7]
  CC50 at 48 h: 835 µM
Influenza A virus [8]
  EC50: 31.2 µM

## C[C@H]1[C@H](OC(=O)CCC(=O)O)O[C@@H]2O[C@@]3(C)CC[C@H]4[C@H](C)CC[C@@H]1[C@@]24OO3 [ARTESUNATE]
SARS-CoV-2
  EC50: 13 µM

## O=C1c2c(O)cc(O)cc2O[C@H](c2cc(O)c(O)c(O)c2)[C@H]1O [AMPELOPSIN]
[9]
  CC50 at 24 h: > 200 µM

## O=c1cc(-c2ccccc2)oc2cc(O)c(O)c(O)c12 [BAICALEIN]
[9]
  CC50 at 24 h: > 200 µM

## COc1cc(OC)c2c(c1OC)C[C@H]1NCCc3cc4c(c-2c31)OCO4
[10]
  EC50: 5.8 µM
[11]
  CC50 at 48 h: 43.6 µM

## COc1cc2oc(CO)cc(=O)c2c(O)c1CCC(C)(C)O
[1]
  EC50: 0.09 µM
[2]
  CC50: > 200 µM

## C=CC(C)(C)c1cc2cc(C[C@@H](OCC)C(C)(C)O)c(OC)cc2oc1=O
[12]
  EC50: 0.42 µM
[2]
  CC50: > 200 µM

## C=CC(C)(C)c1cc2cc(C[C@@H](O)C(C)(C)O)c(O)cc2oc1=O
[1]
  EC50: 0.68 µM
[2]
  CC50: > 200 µM

## COc1cc2oc(CO)cc(=O)c2c(OC)c1CC=C(C)C
[1]
  EC50: 1.32 µM
[2]
  CC50: > 200 µM

## C=C(C)[C@@]1(OC(=O)c2ccccc2)[C@H](OC(C)=O)[C@@H]2[C@H](OC(C)=O)[C@@]3(C)O[C@@]4([C@@H]3O)[C@@H](OC(=O)c3ccccc3)[C@@H](C)C[C@H]4[C@@]2(O)[C@H](C)[C@@H]1OC(C)=O
RAW264.7
  CC50: > 200 µM
[13]
  EC50: 0.095 µM

## O=C1C=C2[C@H]3C=CC[C@]2(O1)[C@H]1CCCCN31
[14]
  EC50: 45 µM

## C=C1[C@H]2O[C@@H](OC)[C@H]3[C@@H]1[C@@H]1O[C@@H]1[C@@]3(CO)O2
[15]
  IC50: 7.23 µM
[2]
  CC50: > 200 µM

## C=CC(C)(C)c1cc2cc3c(c(CC=C(C)C)c2oc1=O)O[C@H](C(C)(C)O)C3
[2]
  CC50: > 200 µM

## C=CC(C)(C)c1cc2cc3c(cc2oc1=O)O[C@H](C(C)(C)O)[C@H]3O
[1]
  EC50: 0.17 µM
[2]
  CC50: > 200 µM

## C=CC(C)(C)c1cc2cc(CC(=O)C(C)C)c(OC)cc2oc1=O
[12]
  EC50: 0.12 µM
[2]
  CC50: > 200 µM

## CC(C)=CCc1c(O)cc2oc(CO)cc(=O)c2c1O
[1]
  EC50: 0.67 µM
[2]
  CC50: > 200 µM
